In patent US20030211036A1, “Method and apparatus for monitoring and quantitatively evaluating tumor perfusion” (priority 2002, published 2003):

Columns and labels:
[1] = HDO concentration in mice plasma by 2H-MRS during and post 2H-saline i.v. infusion (arterial input function); type: in vivo
Procedure: (§1) Enrichment of the mice's blood with HDO (99.8%) was achieved by applying a slow i.v. infusion of I ml ^2H-saline with a rate of 100 μl/min.
Blood samples ([…]) were drawn from anesthetized mice by retro orbital sinus puncture at 7 time points, 3 mice for each time point, during and post ^2H saline infusion. Samples were collected into separate tubes containing heparin (50 units/ml of blood, Elkins-Sinn Inc., Cherry Hill, N.J.) and were centrifuged at room temperature. The plasma supernatant samples were separated and transferred into 5 mm NMR tubes. ^2H-MR spectra of the plasma samples were recorded at 61.4 MHz on DMX-400 spectrometer (Bruker Analytik, Germany), with a broad-band probe by applying 90° pulses with 4 s repetition time (fully relaxed conditions). Choline-(CD3)3 was added to each plasma sample as an internal reference for concentration.
The 2-compartment kinetic model related the concentration of the tracer in the tissue to tissue's perfusion, as shown by Eq. [3]. Thus, knowledge of the changing arterial tracer concentration over time, termed arterial input function, was required for the numerical solution of the model. In order to obtain qualitative ^2H-images of the tumors and to allow monitoring of HDO uptake with high spatial resolution, a slow i.v. infusion of ^2H-saline, 1 ml in 10 min. was applied. This protocol enriched the content of HDO in the plasma, which is 0.0148% at natural abundance, by 6.8% of HDO that is below toxic levels (13, 14). HDO concentration in the plasma, determined by ^2H-MRS, was monitored during and post-^2H saline infusion (FIG. 1A). During the infusion, HDO accumulated linearly with a correlation coefficient, R^2, of 0.996. The slow decay of HDO in the plasma, post-infusion, approximated linearity with R^2=0.730. Thus, a linear regression analysis of the blood input function Cp(t), was applied in parts, producing two linear functions: (i) during ^2H-saline infusion at t=t0−tinfus, Cp(t)=f(t)=at+b and (ii) post ^2H-saline infusion at t=tinfus−tend, Cp(t)=g(t)=ct+d. […] The plasma concentrations of HDO before and at the end of ^2H-saline infusion were b=0.016 mmol·ml^−1 and d=7.69 mmol·ml^−1, respectively.

[2] = cited from earlier work
[3] = General well-being of the animals under the slow i.v. 2H-saline infusion protocol; type: in vivo, mice; conditions: i.v. infusion of 1 ml 2H-saline at 100 μl/min
Procedure: as §1

[4] = test system: orthotopic MCF7 human breast cancer tumors; test: Dynamic 3D 2H-MRI of HDO perfusion with two-compartment model-based analysis per voxel; type: in vivo, CD1-NU mice
From the text: A two-compartment model was custom developed for this activity to describe the kinetics of HDO in MCF7 tumors. The model, designed by Yeung et al. (41) to calculate blood brain transfer constant, is a special case of Patlak's blood-brain exchange model (31, 32). In the present work, the two compartments were assigned to the intravascular space with its respective volume fraction vp and the extravascular space, with its effective volume fraction of water ve* which is approximately 70% of the actual extravascular volume ve (ve*=0.7 ve) their respective volume fraction vp and ve* where,
The experimental kinetic data were fitted to Eq. [7] and Eq. [8] with two free parameters: K and vp, using the following substitutions: ve*=1−vp and kb=K/(1−vp). Deuterium signal intensity per pixel in arbitrary units was converted to Cv(t) in mmol/ml using a calibration solution of known deuterium concentration in saline solution ( 9.9 mmol/ml).
The method and apparatus of the present invention were tested experimentally according to the following protocol. Female CD1-NU athymic mice, 6 weeks old, were orthotopically inoculated in the mammary fat pad with MCF7 human breast cancer cells as previously described (33). Tumors were allowed to develop for 4-8 weeks, to sizes ranging between 0.2-2 cm^3 with average size 0.8±0.2 cm^3. For the MRI measurements, mice were anesthetized by exposure to 1% isoflurane (Medeva Pharmaceuticals, Inc., Rochester, N.Y.), in an O2/N2O (3:7) mixture, applied through a nose cone. Approval was obtained for all animal procedures according to the guidelines of the Committee on Animals of the Weizmann Institute of Science.
as §1
In-vivo imaging was accomplished by taking MR images and recording with a 4.7 T Biospec spectrometer (Bruker Analytik, Germany). ^2H and ^1H images were recorded at frequencies of 30.7 MHz and 200 MHz, respectively, and detected by a home-built double-tuned ^2H/^1H surface coil system, 1.5/2.5 cm in diameter. Dynamic ^2H MR images were acquired utilizing a 3-dimensional (3D) gradient echo sequence with the following parameters: echo time (TE)=3 msec, […] (TR)=60 msec, flip angle=45° achieved by an adiabatic pulse (sin/cos), 2 averages, matrix—128×64×16, 2.6 mm slice thickness, an in-plane resolution of 1×2 mm2 and acquisition time of 2.05 min. The sequential acquisition of ^2H-images began with a pre-infusion image and continued throughout ^2H-saline iv. infusion, into the tail vein of the mouse (1 ml/10 min.), and for 30 minutes thereafter. The pre-infusion images were recorded with a tube containing 9.9 mmol/ml HDO in saline solution, attached to the tumor. This served to calibrate the signal intensity to deuterium concentration in units of mmol/ml.
Image analysis was applied on the time evolution of ^2H intensity in a series of coronal images that were reconstructed from dynamic 3D images of the whole tumor acquired before, during and post ^2H-saline infusion. Analysis was performed utilizing a nonlinear least-square fitting algorithm, developed for the purpose of the invention, at a voxel resolution. The computed analysis initially converted ^2H intensity to concentration by referring to the intensity at the pre-infusion image (t=0) in the attached calibration tube that contained a solution of HDO at a concentration of 9.9 mmol/ml. […]

SMILES: [2H]O[2H] [HDO, deuterated water]
- plasma concentration of HDO before 2H-saline infusion (b) ([1]; mice plasma, before infusion): 0.016 mmol/mL
- plasma concentration of HDO at the end of 2H-saline infusion (d) ([1]; mice plasma, end of i.v. infusion, 1 ml in 10 min): 7.69 mmol/mL
- rate of HDO clearance from plasma post infusion (c) ([1]; mice plasma, post 2H-saline infusion, linear regression g(t)=ct+d): -0.07 mmol/mL/min
- rate of HDO accumulation in plasma during infusion (a) ([1]; mice plasma, slow i.v. infusion of 2H-saline, 1 ml in 10 min, linear regression f(t)=at+b): 0.67 mmol/mL/min
- enrichment of the content of HDO in the plasma ([1]; slow i.v. infusion of 2H-saline, 1 ml in 10 min, natural abundance 0.0148%): 6.8%
- concentration of HDO in the plasma upon infusion with respect to bolus injection ([1]; slow i.v. infusion versus bolus injection of 200 μl): ~6 times higher
- HDO enrichment of body fluids considered nontoxic [2]: up to 10%
- adverse effects on the general well-being of the animals [3]: no adverse effects
- K, fit to the HDO perfusion kinetic model ([4]; FIG. 3 single voxel (a), R^2=0.94): 0.0016 min⁻¹
- K, fit to the HDO perfusion kinetic model ([4]; FIG. 3 single voxel (b), R^2=0.94): 0.0005 min⁻¹
- K, fit to the HDO perfusion kinetic model ([4]; FIG. 3 single voxel (c), R^2=0.96): 0.0031 min⁻¹
- range of the perfusion rate per voxel ([4]; all voxels of the parametric maps, seven MCF7 tumors): 4e-06 to 0.0039 min⁻¹
- Perfusion rate, K, Mean, Average ([4]; average of the total population of voxels in the ROIs of all tumors (n = 1278 pixels)): 1.02 ± 0.02 ·10^−3 min^−1
